Measured values: ChEMBL document CHEMBL1201862, “PubChem BioAssay data set” (2004)
The source made the active and inactive calls.

What was measured:
Cytochrome P450 2C9 = Cytochrome P450 2C9 (Homo sapiens, UniProt P11712); conditions: Potency
[1] = inhibitors of firefly luciferase expression or activity, dose response, H4 neuroglioma cells, luminescence (AID 1990); format: functional, cell-based
[2] = Luminescence Cell-Based Dose Response HTS to Identify Inhibitors of 5'UTR Stem-Loop Driven Prion Protein mRNA Translation in H4 Neuroglioblastoma Cells. [Related pubchem assays: 1827 (Project Summary), 1813 (Primary HTS)]; format: functional
[3] = inhibitors of SNCA 5'UTR-driven reporter translation, confirmation, H4 neuroglioma cells, luminescence (AID 1988); format: functional, cell-based
[4] = Luminescence-based counterscreen assay for KLF5 inhibitors: dose response cell-based high throughput screening assay to identify cytotoxic compounds using the IEC-6 intestinal epithelial cell line. [Related pubchem assays: 1700 (Primary screen.), 1834 (Confirmation screen.), 1858 (Summary AID.), 1905 (Counterscreen.)]; format: functional
[5] = cytotoxicity in HEK-293T cells, dose response, cytotoxicity control for TCR NF-kB inhibitor project, luminescence, T-cell screen hits (AID 489026); format: functional, cell-based;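 note: cells exposed to compound about 14 hours before the viability readout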
INS1 = experiment: beta cell apoptosis inhibitors, cytokine rescue, dose response, luminescence, retest (AID 449756); format: functional, cell-based; conditions: Rattus norvegicus;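 note: cell death triggered by IL-1 beta plus TNF-alpha plus IFN-gamma mixture; protective hits raise ATP signal compared with cytokine alone wells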
Cytochrome P450 2D6 = Cytochrome P450 2D6 (Homo sapiens, UniProt P10635); experiment: qHTS Assay for Inhibitors and Substrates of Cytochrome P450 2D6. [Related pubchem assays: 410 ]; format: ADME; conditions: read-out: Potency
Cytochrome P450 2D6, sequence (P10635 whole entry): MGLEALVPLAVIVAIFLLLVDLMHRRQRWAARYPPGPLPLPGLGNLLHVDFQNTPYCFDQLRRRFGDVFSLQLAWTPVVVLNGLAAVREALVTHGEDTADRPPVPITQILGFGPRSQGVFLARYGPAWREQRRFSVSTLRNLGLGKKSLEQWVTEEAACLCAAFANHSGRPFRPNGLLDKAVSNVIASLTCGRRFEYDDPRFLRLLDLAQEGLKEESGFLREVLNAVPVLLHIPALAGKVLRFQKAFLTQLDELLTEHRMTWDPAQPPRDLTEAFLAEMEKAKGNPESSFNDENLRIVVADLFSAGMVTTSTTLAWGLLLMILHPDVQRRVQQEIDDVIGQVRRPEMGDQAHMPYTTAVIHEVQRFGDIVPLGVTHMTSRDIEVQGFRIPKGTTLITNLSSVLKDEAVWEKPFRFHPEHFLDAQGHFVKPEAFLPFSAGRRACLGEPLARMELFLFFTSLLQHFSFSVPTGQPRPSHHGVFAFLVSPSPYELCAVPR

[6] = target: Peroxisome proliferator-activated receptor gamma/Nuclear receptor coactivator 2 (Homo sapiens, UniProt P37231); format: functional;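 note: agonist potency for raising coactivator recruitment to the receptor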
Peroxisome proliferator-activated receptor gamma/Nuclear receptor coactivator 2, sequence (P37231 whole entry): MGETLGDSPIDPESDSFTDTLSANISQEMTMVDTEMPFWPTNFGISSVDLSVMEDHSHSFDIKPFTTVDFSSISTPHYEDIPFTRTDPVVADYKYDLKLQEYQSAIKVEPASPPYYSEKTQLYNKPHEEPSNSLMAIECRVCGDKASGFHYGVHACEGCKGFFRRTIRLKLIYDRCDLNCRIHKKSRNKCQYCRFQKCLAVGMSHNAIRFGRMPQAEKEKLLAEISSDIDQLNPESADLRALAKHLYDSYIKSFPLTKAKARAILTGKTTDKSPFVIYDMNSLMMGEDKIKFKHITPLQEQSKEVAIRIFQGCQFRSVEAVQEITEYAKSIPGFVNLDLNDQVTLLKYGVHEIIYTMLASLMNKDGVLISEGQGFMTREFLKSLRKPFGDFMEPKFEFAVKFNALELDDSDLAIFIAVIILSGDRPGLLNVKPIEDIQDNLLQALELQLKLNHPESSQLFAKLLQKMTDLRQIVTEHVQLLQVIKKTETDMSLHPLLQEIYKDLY
Peroxisome proliferator-activated receptor gamma/Nuclear receptor coactivator 2, sequence (Q15596 whole entry, further chain): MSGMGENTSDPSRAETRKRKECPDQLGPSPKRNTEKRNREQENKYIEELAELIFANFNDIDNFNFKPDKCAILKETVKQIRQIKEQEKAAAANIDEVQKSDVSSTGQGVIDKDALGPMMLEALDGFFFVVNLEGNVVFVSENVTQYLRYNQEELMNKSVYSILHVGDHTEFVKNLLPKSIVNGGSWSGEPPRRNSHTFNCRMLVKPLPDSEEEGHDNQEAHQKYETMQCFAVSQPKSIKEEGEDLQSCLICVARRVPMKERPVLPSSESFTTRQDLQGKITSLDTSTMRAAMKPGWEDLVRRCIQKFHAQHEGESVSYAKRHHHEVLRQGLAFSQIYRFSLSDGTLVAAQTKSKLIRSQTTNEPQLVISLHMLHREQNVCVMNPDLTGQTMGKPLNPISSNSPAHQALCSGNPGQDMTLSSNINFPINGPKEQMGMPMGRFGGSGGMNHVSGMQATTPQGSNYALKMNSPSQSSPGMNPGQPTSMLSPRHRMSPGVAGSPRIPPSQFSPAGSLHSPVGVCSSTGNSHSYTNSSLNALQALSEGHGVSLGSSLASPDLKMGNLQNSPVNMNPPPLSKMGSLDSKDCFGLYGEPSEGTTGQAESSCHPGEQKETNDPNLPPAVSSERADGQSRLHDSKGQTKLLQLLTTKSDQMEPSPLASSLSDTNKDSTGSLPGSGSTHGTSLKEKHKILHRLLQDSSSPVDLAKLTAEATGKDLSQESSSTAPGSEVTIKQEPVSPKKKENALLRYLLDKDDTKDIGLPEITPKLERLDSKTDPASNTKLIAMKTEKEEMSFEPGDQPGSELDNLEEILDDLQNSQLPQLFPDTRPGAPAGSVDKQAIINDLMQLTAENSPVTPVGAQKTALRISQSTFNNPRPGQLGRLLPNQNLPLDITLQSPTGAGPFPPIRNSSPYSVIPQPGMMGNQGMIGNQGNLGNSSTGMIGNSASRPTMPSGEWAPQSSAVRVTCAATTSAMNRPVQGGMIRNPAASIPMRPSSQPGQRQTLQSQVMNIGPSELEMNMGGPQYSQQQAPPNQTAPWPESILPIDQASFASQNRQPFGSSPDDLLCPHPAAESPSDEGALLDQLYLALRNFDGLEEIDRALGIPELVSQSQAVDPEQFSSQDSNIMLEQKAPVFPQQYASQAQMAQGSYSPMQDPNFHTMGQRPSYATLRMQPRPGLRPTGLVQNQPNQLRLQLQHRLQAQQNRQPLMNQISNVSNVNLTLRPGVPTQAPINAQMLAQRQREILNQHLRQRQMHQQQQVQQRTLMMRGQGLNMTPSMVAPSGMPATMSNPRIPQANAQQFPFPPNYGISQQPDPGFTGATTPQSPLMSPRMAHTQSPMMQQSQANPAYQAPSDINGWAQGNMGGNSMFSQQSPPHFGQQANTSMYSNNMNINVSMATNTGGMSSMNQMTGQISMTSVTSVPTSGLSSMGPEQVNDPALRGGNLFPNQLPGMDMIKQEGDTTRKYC

[7] = target: Peroxisome proliferator-activated receptor gamma/Nuclear receptor coactivator 1 (Homo sapiens, UniProt P37231); format: functional;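 note: agonist potency as compounds enhance coactivator SRC-1 recruitment to PPARgamma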
[8] = target: Peroxisome proliferator-activated receptor gamma/Nuclear receptor coactivator 3 (Homo sapiens, UniProt P37231); format: functional;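 note: agonist potency for raising coactivator recruitment to the receptor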
Estrogen receptor = target: T1, Estrogen receptor (Homo sapiens, UniProt P03372);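 note: potency for inhibiting coactivator peptide recruitment to the receptor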
T1 sequence (P03372 whole entry): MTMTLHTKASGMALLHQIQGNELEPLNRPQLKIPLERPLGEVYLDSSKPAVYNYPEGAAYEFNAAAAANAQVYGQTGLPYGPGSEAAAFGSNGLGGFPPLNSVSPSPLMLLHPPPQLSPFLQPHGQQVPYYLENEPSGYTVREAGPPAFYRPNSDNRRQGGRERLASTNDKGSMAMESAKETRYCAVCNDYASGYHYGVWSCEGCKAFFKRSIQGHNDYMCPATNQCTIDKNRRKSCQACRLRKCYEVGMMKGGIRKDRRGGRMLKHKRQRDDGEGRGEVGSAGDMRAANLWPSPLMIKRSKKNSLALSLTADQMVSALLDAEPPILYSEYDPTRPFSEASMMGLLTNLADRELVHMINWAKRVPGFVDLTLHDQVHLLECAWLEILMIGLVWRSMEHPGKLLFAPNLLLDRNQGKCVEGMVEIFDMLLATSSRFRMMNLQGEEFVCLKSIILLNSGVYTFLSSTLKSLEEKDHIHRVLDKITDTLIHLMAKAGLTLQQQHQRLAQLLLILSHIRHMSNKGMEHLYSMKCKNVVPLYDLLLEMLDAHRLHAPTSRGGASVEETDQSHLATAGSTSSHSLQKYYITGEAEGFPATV

X-box-binding protein 1 = X-box-binding protein 1 (Homo sapiens, UniProt P17861); format: functional, Cricetulus griseus;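 note: confirmatory dose-response counter-screen serving a CHOP assay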
X-box-binding protein 1, sequence (P17861 whole entry): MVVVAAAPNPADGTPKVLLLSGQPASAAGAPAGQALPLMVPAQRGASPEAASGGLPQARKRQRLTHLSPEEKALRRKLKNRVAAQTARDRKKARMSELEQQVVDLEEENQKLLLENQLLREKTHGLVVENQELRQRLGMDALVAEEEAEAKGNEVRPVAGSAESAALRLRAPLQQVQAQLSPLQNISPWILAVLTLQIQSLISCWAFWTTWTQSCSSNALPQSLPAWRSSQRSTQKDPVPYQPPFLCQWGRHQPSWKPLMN

[9] = target: T2, Corticotropin-releasing factor receptor 2/Corticotropin-releasing factor-binding protein (Homo sapiens, UniProt P24387+Q13324); experiment: activators of CRF receptor 2 with binding protein – uHTS hits, confirmation (AID 602473); format: functional; conditions: read-out: EC50_Mean
T2 sequence (Q13324 whole entry): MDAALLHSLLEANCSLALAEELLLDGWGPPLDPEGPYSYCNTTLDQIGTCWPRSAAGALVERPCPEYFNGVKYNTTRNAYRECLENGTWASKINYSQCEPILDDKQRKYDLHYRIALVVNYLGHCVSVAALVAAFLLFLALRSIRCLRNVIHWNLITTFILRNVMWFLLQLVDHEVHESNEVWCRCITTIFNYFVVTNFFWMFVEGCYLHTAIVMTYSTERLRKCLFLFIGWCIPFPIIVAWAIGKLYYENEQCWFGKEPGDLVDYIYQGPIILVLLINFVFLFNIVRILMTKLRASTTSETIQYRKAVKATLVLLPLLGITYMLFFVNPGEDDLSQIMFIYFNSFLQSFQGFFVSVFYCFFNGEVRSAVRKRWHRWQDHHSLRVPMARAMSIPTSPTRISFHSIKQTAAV
T2 sequence (P24387 whole entry): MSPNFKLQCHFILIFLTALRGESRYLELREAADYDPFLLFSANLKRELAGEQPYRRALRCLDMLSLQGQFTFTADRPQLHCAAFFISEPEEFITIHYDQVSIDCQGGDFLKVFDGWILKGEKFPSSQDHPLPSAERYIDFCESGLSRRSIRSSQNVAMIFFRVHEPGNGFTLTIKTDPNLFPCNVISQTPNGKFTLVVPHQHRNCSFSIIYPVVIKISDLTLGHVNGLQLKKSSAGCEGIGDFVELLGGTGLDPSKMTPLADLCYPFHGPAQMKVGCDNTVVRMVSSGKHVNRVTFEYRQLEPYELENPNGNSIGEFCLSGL

[10] = A Cell Based Secondary Assay To Explore Cytotoxicity of Compounds that Sensitize Mycobacterium Tuberculosis to Beta-Lactam Antibiotics.; format: functional
[11] = inhibitors of intracellular T. cruzi replication, confirmation, NIH3T3 host cells, beta-gal luminescence (AID 2044); format: functional, cell-based;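 note: intracellular parasites grown in NIH/3T3 mouse fibroblasts as host cells; luminescent beta-galactosidase reporter signal from transgenic T. cruzi replicating inside host cells; inhibitors lower the luminescence signal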
[12] = cytotoxicity toward NIH3T3 fibroblasts, dose response, counter-screen, cell-based, ATP luminescence, mouse fibroblasts (AID 2010); format: functional;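 note: cells exposed to compound for about 90 hours before reading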
[13] = A cytotoxicity screen of small molecule inhibitors of the PhoP region in Salmonella typhi identified in the primary screen. [Related pubchem assays: 1850, 1864, 1985 ]; format: functional

Cytochrome P450 2C9, sequence (P11712 whole entry): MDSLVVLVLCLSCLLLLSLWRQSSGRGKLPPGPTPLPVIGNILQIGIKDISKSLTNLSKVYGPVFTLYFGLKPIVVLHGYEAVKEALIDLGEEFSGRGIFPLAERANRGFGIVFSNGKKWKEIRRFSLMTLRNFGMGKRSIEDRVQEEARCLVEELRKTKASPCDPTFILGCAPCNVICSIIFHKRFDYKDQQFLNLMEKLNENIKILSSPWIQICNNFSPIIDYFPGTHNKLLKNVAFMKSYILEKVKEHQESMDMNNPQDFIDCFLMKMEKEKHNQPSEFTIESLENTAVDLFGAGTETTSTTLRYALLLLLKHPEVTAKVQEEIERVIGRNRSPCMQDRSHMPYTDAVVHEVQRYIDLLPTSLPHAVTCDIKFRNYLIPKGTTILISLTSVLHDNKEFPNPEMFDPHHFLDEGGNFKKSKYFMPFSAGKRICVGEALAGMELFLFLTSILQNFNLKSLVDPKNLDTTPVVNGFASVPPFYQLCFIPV

CC(C)C[C@@H](CC(=O)N[C@@H](CCCN)CC(=O)N[C@@H]1CCNC[C@H]1C(=O)N[C@H](CC(=O)N[C@@H](CCC(=O)O)CC(=O)O)CC(C)C)NC(=O)[C@@H]1CCCC[C@H]1N
AC50 (Cytochrome P450 2C9): 12.6 µM (inconclusive)

C#Cc1ccc([C@@H]2C=C(C(=O)N3CCN(Cc4ccccc4)CC3)O[C@H](OCCCCO)C2)cc1
EC50 [1]: 9.88 µM (active) | EC50 [2]: 9.17 µM (active) | EC50 [3]: 7.64 µM (active) | IC50 [4]: > 39.8 µM (not active) | IC50 [5]: > 80 µM (inactive) | AC50 (INS1): 1.01 µM (active)

COc1cc(OC)cc([C@H](CNc2ncnc3c2ncn3[C@@H]2O[C@@H](CO)[C@H](O)[C@@H]2O)c2ccccc2C)c1
AC50 (Cytochrome P450 2D6): 39.8 µM (inconclusive) | AC50 (Cytochrome P450 2C9): 0.0158 µM (inconclusive)

CC(C)(C)c1nnc(NC(=O)CN2C(=O)C3C4C=CC(C4)C3C2=O)s1 (stereo not given)
EC50 [6]: > 79.4 µM (not active) | EC50 [7]: > 79.4 µM (not active) | EC50 [8]: > 79.4 µM (not active)

COC(=O)Oc1c(Br)c(=O)oc2ccccc12
IC50 (Estrogen receptor): > 50 µM (not active)

CC1(c2ccc(OC(F)F)cc2)NC(=O)N(/N=C/c2c(O)ccc3ccccc23)C1=O (stereo not given)
Absolute IC50 (XBP1) (X-box-binding protein 1): 10 µM | EC50 [9]: > 53 µM (inactive)

C/C(N)=C(/C#N)C(=O)COC(=O)c1cc2c(s1)CCCC2
IC50 (cells): 21.3 µM (active)

CCCCOc1ccc(/C=N/Nc2cc(N3CCOCC3)nc(C)n2)cc1
CC50 [10]: > 40 µM (active) | EC50 [11]: 2.46 µM (active) | EC50 [12]: > 60 µM (not active)

O=C(N/N=C/C1CC=CCC1)c1cc(Br)ccc1O (stereo not given)
EC50 [13]: > 50 µM (active)
